Results as given in US20240091172A1, “DRUG FOR ANTAGONIZING REPLICATION OF PORCINE REPRODUCTIVE AND RESPIRATORY SYNDROME VIRUS AND APPLICATION THEREOF” (NANJING AGRICULTURAL UNIVERSITY, priority 2019, published 2024).

What was measured:
PRRSV [1] = test: Natural product drug library screening, PRRSV infection of Marc-145 cells; assay type: cell-based, porcine reproductive and respiratory syndrome virus; conditions: for inhibitory effects on PRRSV: second round hits
Experimental: Marc-145 cells were treated with 10 μM of natural products and then infected with PRRSV. In the first round of screening, 24 compounds (6.21%) had no obvious cytotoxicity to Marc-145 cells and could reduce PRRSV-induced CPE by 50% (FIG. 1A).

[2] = Cytotoxicity to Marc-145 cells (CCK8, CC50); assay type: cell-based; conditions: African green monkey, Marc-145 cells; Marc145 cells, CCK8 cytotoxicity assay
Experimental: (§1) Cell viability was detected with the enhanced CCK8 kit. The concentration (CC50) at which Xn was cytotoxic to 50% of the cells was calculated using GraphPad Prism 7.0 software. DMSO was used as a negative control.
(§2) Further, the inhibitory efficiency of Xn on PRRSV in Marc145 cells was detected by indirect immunofluorescence. […] To further determine the dose range of Xn with the anti-PRRSV activity, Marc-145 cells were treated with 5 μM, 10 μM, and 15 μM Xn respectively, and then infected with PRRSV (0.01 MOI).

Marc-145 cells = test: Cytotoxicity to Marc-145 cells (CCK8, CC50); assay type: cell-based
Experimental: as §1, §2

PRRSV [3] = test: IC50 against PRRSV in Marc145 cells by indirect immunofluorescence; assay type: cell-based; conditions: Porcine reproductive and respiratory syndrome virus
Experimental: (§3) Xn of different concentrations was added to a PAMs medium (1-30 μM), and a DMSO negative control group was set up. Cells were inoculated with PRRSV (0.01 MOI) and incubated at 37° C. for 30 h, and the cell supernatant was pipetted and discarded. The cells were fixed with 4% (volume ratio) paraformaldehyde for 15 min, permeabilized with 0.1% (volume ratio) Triton X-100 for 30 min, and washed 3 times with PBS for 3 min each time. A PRRSV N protein monoclonal antibody (2H7) at a dilution of 1:1000 was added, and the cells were incubated at 37° C. for 1 h, and washed 3 times with PBST for 3 min each time. Alexa Fluor 594 goat anti-mouse IgG at a dilution of 1:1000 was added, and the cells were incubated at 37° C. for 45 min. The nuclei were stained with DAPI for 10 min at room temperature. Three photos were recorded randomly with a Nikon A1 confocal microscope. The fluorescence intensity was measured by ImageJ software. Finally, the 50% inhibitory concentration (IC50) of Xn against PRRSV was calculated by GraphPad Prism 7.0 software, and the results were recorded.
as §2

PRRSV [4] = test: PRRSV replication in Marc-145 cells (TCID50, ORF7 mRNA, CPE/IFA, Western blot); assay type: cell-based, porcine reproductive and respiratory syndrome virus
Experimental: (§4) Marc-145 cells were cultured in a 96-well plate. When the cell confluence reached 70%, a nutrient solution was pipetted and discarded, and the cell surface was washed 3 times with PBS. Ten-fold serially diluted PRRSV was added to the cells and the cells were incubated at 37° C. for 1 h. The medium was replaced with fresh 2% FBS-DMEM. Virus titers were determined 5 days post-inoculation (dpi) using end-point dilution analysis. The 50% cell infectious dose (TCID50) was calculated by the Reed-Muench method.
(§5) Cellular RNAs were extracted following the operation instructions of an OMEGA RNA virus extraction kit. […] Relative fluorescence quantification was performed after reverse transcription, and the primer sequences used were as follows:
(§6) According to the method of 2-ΔΔCt, the relative content of mRNA of each gene in a sample was calculated with a CT value.
as §2

[5] = Cytotoxicity (CC50) in PAMs cells; assay type: cell-based, porcine; conditions: pig
PRRSV [6] = test: IC50 against PRRSV in PAMs by immunofluorescence; assay type: cell-based; conditions: Porcine reproductive and respiratory syndrome virus; PAMs cells
Experimental: as §3

PRRSV [7] = test: PRRSV replication in PAM cells (N protein, ORF7 mRNA, titer, different strains); assay type: cell-based, porcine reproductive and respiratory syndrome virus
Experimental: as §4, §5
The results are shown in FIGS. 4A-D. In PAM, Xn could inhibit the replication of different genetic subtypes of PRRSV strains in the viral ORF7 gene and protein levels, and reduce the viral infection titer.

PRRSV [8] = test: Stage experiment of drug (pre-, co-, post-treatment) in PAMs; assay type: cell-based, porcine reproductive and respiratory syndrome virus; conditions: 24 hpi
Experimental: Xn treatment time and PRRSV infection time are shown on the timeline in FIG. 5A. PAMs were inoculated into a 24-well plate, and after complete sedimentation, the time was set as −1 h. 10 μM Xn was added to a pretreatment group (Pre) at −1 h; and at 0 h; cells were inoculated 0.1 moi PRRSV and incubated at 37° C. for 1 h; the virus-containing cell culture was replaced with 2% FBS-DMEM; and the cells were cultured at 37° C. for 24 h. Xn was added to the cells in a co-treatment group (Co) at 0 h; the cells were inoculated with 0.1 moi PRRSV, and incubated at 37° C. for 1 h; the virus-containing cell culture was replaced with 2% FBS-DMEM; and the cells were cultured at 37° C. for 24 h. A post-treatment group (Post) was inoculated with 0.1 moi PRRSV at 0 h; the culture was discarded at 1 h and replaced with 2% FBS-DMEM containing 10 μM Xn; and the cells were cultured at 37° C. for 24 h.
PAMs were treated with Xn before, during and after PRRSV infection (FIG. 5A). Cell samples were collected at 24 hpi for detection of PRRSV N protein and PRRSV ORF7 mRNA by Western blot and qRT-PCR respectively, and the cell supernatant was collected for virus titer determination.

[9] = test system: IL-1β, IL-6, IL-8 and TNF-α mRNA; test: PRRSV- or LPS-induced inflammatory reaction in Marc-145 cells (qRT-PCR); assay type: cell-based
Experimental: as §5, §6
(§7) Marc-145 cells and PAM cells were inoculated with 0.1 MOI PRRSV and incubated at 37° C. for 1 h. The nutrient solution was replaced with DMEM-2% FBS containing Xn (or DMSO), and 24 h post infection, cellular RNAs were extracted. A positive control group was set up: Marc-145 cells and PAMs were treated with 10 μg/mL LPS (or DMEM) for 1 h; the cell surface was washed 3 times with PBS; 2% FBS-DMEM containing Xn (or DMSO) was added; and after 6 h, the cells were collected, RNAs were extracted, and the mRNA levels of IL-1β, IL-6, IL-8 and TNF-α were detected by qRT-PCR. The results are shown in FIG. 6 (Marc-145) and FIG. 7 (PAM cells).

[10] = test system: IL-1β, IL-6, IL-8 and TNF-α mRNA; test: PRRSV- or LPS-induced inflammatory reaction in PAM cells (qRT-PCR); assay type: cell-based, porcine
Experimental: as §5, §6, §7

PRRSV [11] = test: Anti-PRRSV activity of xanthohumol derivatives on Marc-145; assay type: cell-based, porcine reproductive and respiratory syndrome virus
PRRSV BB0907 strain = test: Piglet treatment experiment after PRRSV infection; assay type: in vivo, piglets; conditions: for virus level in the serum vs virus-infected positive control group: 4-14 dpi
[12] = Marc-145, 5, 10, 15 μM Xn, 0.01 MOI, 24, 36, 48 hpi
[13] = PAM cells, dose-dependent manner

COc1cc(O)c(CC=C(C)C)c(O)c1C(=O)/C=C/c1ccc(O)cc1 [Xn, xanthohumol]
IC50, comparison among the 5 screened compounds (PRRSV [1]): lowest | selectivity index, comparison among the 5 screened compounds (PRRSV [1]): highest | inhibitory effects on PRRSV (PRRSV [1]): dose-dependent inhibitory effects | CC50 at 48 h [2]: 62.5 µM | CC50, comparison among the 5 screened compounds (Marc-145 cells; Marc-145 cells): highest | IC50 (PRRSV [3]): 2.37 µM | replication of the three PRRSV strains (Western blot) (PRRSV [4]; Marc-145): effectively reduce | number of infected cells (CPE and IFA) vs negative control group (PRRSV [4]; Marc-145, 48 hpi): significantly less | ORF7 mRNA level (PRRSV [4]; [12]): dose-dependent decrease | viral titers (TCID50 of PRRSV) (PRRSV [4]; [12]): dose-dependent decrease | CC50 [5]: 42.6 µM | IC50 (PRRSV [6]): 7.05 µM | replication of different genetic subtypes of PRRSV strains (ORF7 gene and protein levels) (PRRSV [7]; PAM): inhibit | level of PRRSV N protein (PRRSV [7]; [13]): decreased | level of viral mRNA (PRRSV [7]; [13]): decreased | viral infection titer (PRRSV [7]; PAM, different genetic subtypes of PRRSV strains): reduce | level of PRRSV replication (N protein, ORF7 mRNA, virus titer) (PRRSV [8]; 10 μM Xn co-treatment (Co)): inhibited the virus to a lower degree | level of PRRSV replication (N protein, ORF7 mRNA, virus titer) (PRRSV [8]; 10 μM Xn post virus infection (Post)): significantly reduced | level of PRRSV replication (N protein, ORF7 mRNA, virus titer) (PRRSV [8]; 10 μM Xn pretreatment (Pre)): inhibited the virus to a lower degree | mRNA expressions of IL-1β, IL-6, IL-8 and TNF-α induced by LPS ([9]; Marc-145, 10 μg/mL LPS, 6 h, dose-dependent): effectively reduce | mRNA expressions of IL-1β, IL-6, IL-8 and TNF-α induced by PRRSV ([9]; Marc-145, 0.1 MOI PRRSV, 24 h post infection, dose-dependent): effectively reduce | intracellular inflammatory factors, Xn control treatment ([9]; Marc-145, Xn alone): did not cause changes | mRNA expressions of IL-1β, IL-6, IL-8 and TNF-α induced by LPS ([10]; 10 μg/mL LPS, 6 h, dose-dependent): effectively reduce | mRNA expressions of IL-1β, IL-6, IL-8 and TNF-α induced by PRRSV ([10]; 0.1 MOI PRRSV, 24 h post infection, dose-dependent): effectively reduce | intracellular inflammatory factors, Xn control treatment ([10]; Xn alone): did not cause changes

COc1cc(OC)c(C(=O)/C=C/c2ccc(O)cc2)c(OC)c1 [Xn-2]
anti-PRRSV activity on Marc-145 (PRRSV [11]; 0-50 uM): inhibitory effects

COc1cc(O)c(C(=O)/C=C/c2ccc(O)cc2)c(OC)c1 [Xn-4]
anti-PRRSV activity on Marc-145 (PRRSV [11]; 0-50 uM): inhibitory effects | anti-PRRSV effect, ranking among the three compounds (PRRSV [11]; 0-50 uM, Marc-145): best effect | concentration with an obvious antiviral effect (PRRSV [11]; Marc-145): 15 µM | pigs died (PRRSV BB0907 strain; 10 mg/kg intramuscular, 5 per group, death at 10 dpi): 1 | rectal temperature of the piglets (PRRSV BB0907 strain; 10 mg/kg intramuscular, 14 days post infection): increased | virus level in the serum vs virus-infected positive control group (PRRSV BB0907 strain; 10 mg/kg, P<0.05): significantly lower | lung pathological change scores vs positive control group (PRRSV BB0907 strain; 10 mg/kg, 14 dpi, P<0.05): significantly lower | clinical fever and clinical symptoms (PRRSV BB0907 strain; 20 mg/kg intramuscular, days 0-14): no clinical fever or obvious clinical symptoms | survival (PRRSV BB0907 strain; 20 mg/kg intramuscular, during the experiment): all were healthy and alive | copy number of the PRRSV genome in the nasal swabs vs positive control group (PRRSV BB0907 strain; 20 mg/kg, 4-10 dpi): significantly lower | virus level in the serum vs virus-infected positive control group (PRRSV BB0907 strain; 20 mg/kg, P<0.05): significantly lower | PRRSV viral load in the lungs vs control group (PRRSV BB0907 strain; 20 mg/kg, 14 dpi, P<0.05): significantly lower | lung pathological change scores vs positive control group (PRRSV BB0907 strain; 20 mg/kg, 14 dpi, P<0.05): significantly lower | inflammatory factors IL-1β, IL-6, IL-8 and TNF-α mRNA in the lung tissue (PRRSV BB0907 strain; 5, 10, 20 mg/kg, qRT-PCR): decreased in a dose-dependent manner

COc1cc(O)cc(O)c1C(=O)/C=C/c1cccc([N+](=O)[O-])c1 [Xn-5]
cytotoxicity (Marc-145 cells; low concentrations): highly cytotoxic | antiviral ability (PRRSV [11]; low concentrations): did not have antiviral ability

Oc1c(Cl)cc(Cl)c2cccnc12 [chloroxine, reference compound]
inhibitory effects on PRRSV (PRRSV [1]): dose-dependent inhibitory effects

COc1cc(/C=C/C(=O)CC(=O)/C=C/c2ccc(O)c(OC)c2)ccc1O [curcumin]
inhibitory effects on PRRSV (PRRSV [1]): dose-dependent inhibitory effects
